Experiment [1] has as its target recombinant RORγ Ligand Binding Domain (LBD) protein (Homo sapiens (Human), UniProt P51449). Kind of experiment: Radio-Ligand RORγ Binding Assay (Assay 1). The following applies: competition with 25-hydroxy [26,27-3H]-cholesterol, SPA. Summed up: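 His-GST-fused RORγ ligand-binding domain (24 nM solution) competed between compounds and tritiated 25-hydroxycholesterol (8.6 nM solution), read by SPA after brief rt incubations in pH 7.4 HEPES/glycerol/detergent buffer. Four-parameter curve fitting gave IC50 at inflection, converted to Ki using radioligand concentration and KD.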

Experiment [2] concerns the target full-length RORγt in Jurkat cells (Homo sapiens (Human), UniProt P51449). Kind of experiment: RORγt 5×RORE Assay in Jurkat Cells (Assay 2). The experiment is classed as cell-based. The following applies: 5×RORE Nanoluc luciferase reporter.

Some results are limits rather than exact numbers.

As usually defined, the Ki is the equilibrium dissociation constant of an inhibitor or competing ligand from its target. Usually IC50 stands for the midpoint of a concentration-inhibition curve.

recombinant RORγ Ligand Binding Domain (LBD) protein, sequence (P51449 269-508): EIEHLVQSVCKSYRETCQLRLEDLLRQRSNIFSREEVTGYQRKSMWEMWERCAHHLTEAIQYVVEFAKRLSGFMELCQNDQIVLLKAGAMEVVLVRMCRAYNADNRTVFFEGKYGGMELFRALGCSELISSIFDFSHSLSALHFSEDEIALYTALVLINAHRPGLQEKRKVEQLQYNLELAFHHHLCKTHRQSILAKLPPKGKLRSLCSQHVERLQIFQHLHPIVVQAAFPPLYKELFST
full-length RORγt in Jurkat cells, sequence (P51449 other isoform, or with tags, fused parts or gaps): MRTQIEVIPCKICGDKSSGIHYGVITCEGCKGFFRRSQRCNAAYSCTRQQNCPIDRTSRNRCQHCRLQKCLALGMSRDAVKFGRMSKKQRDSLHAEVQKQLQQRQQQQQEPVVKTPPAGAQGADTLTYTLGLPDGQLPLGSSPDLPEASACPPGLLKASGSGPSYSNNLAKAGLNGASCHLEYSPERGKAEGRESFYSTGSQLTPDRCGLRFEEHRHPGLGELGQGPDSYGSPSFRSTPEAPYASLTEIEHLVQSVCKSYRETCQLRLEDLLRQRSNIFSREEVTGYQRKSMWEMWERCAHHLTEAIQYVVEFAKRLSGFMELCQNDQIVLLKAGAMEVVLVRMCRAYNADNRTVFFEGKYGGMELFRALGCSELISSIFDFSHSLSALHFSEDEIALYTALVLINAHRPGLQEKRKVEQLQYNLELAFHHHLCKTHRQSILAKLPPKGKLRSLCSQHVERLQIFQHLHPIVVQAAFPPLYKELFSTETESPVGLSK

With `CCS(=O)(=O)c1ccc(CNC(=O)c2ccc3c(c2)nc(C(F)(F)F)n3Cc2cccc3c2OC(F)(F)O3)c(O)c1` [I-126, 1-((2,2-difluorobenzo[d][1,3]dioxol-4-yl)methyl)-N-(4-(ethylsulfonyl)-2-hydroxybenzyl)-2-(trifluoromethyl)-1H-benzo[d]imidazole-5-carboxamide], the Ki in experiment [1] was under 100 nM. The same compound came in with an IC50 in experiment [2] of under 100 nM.
For `CS(=O)(=O)N1CCC([C@H](CO)NC(=O)c2ccc3c(c2)nc(C(F)(F)F)n3Cc2cccc3c2OC(F)(F)O3)CC1` (mixture of isomers) [I-164.2, (R)-1-((2,2-difluorobenzo[d][1,3]dioxol-4-yl)methyl)-N-(2-hydroxy-1-(1-(methylsulfonyl)piperidin-4-yl)ethyl)-2-(trifluoromethyl)-1H-benzo[d]imidazole-5-carboxamide and (S)-1-((2,2-difluorobenzo[d][1,3]dioxol-4-yl)methyl)-N-(2-hydroxy-1-(1-(methylsulfonyl)piperidin-4-yl)ethyl)-2-(trifluoromethyl)-1H-benzo[d]imidazole-5-carboxamide], in experiment [1], the Ki is under 100 nM. The same compound gave an IC50 in experiment [2] of under 100 nM.
On to `CCS(=O)(=O)c1ccc(CNC(=O)c2ccc3c(c2)nc(C2(F)CCC2)n3Cc2cccc3c2OC(F)(F)O3)cc1` [I-43, 1-((2,2-difluorobenzo[d][1,3]dioxol-4-yl)methyl)-N-(4-(ethylsulfonyl)benzyl)-2-(1-fluorocyclobutyl)-1H-benzo[d]imidazole-5-carboxamide], for which, in experiment [1], the Ki is under 100 nM. For the same compound, in experiment [2], the IC50 was under 100 nM.
As for `CCS(=O)(=O)c1ccc([C@H](CC(N)=O)NC(=O)c2ccc3c(c2)nc(C(F)(F)F)n3Cc2cccc3c2OC(F)(F)O3)cc1` [I-168, (S)-N-(3-amino-1-(4-(ethylsulfonyl)phenyl)-3-oxopropyl)-1-((2,2-difluorobenzo[d][1,3]dioxol-4-yl)methyl)-2-(trifluoromethyl)-1H-benzo[d]imidazole-5-carboxamide], the Ki in experiment [1] is under 100 nM. In experiment [2], the IC50 is under 100 nM.
Turning to `CCS(=O)(=O)c1ccc(CNC(=O)c2ccc3c(c2)nc(CC(C)C)n3Cc2cccc3c2OC(F)(F)O3)cc1` [I-33, 1-((2,2-difluorobenzo[d][1,3]dioxol-4-yl)methyl)-N-(4-(ethylsulfonyl)benzyl)-2-isobutyl-1H-benzo[d]imidazole-5-carboxamide], in experiment [1], the Ki was under 100 nM. The IC50 in experiment [2] was under 100 nM.
`CCS(=O)(=O)c1ccc(CNC(=O)c2ccc3c(c2)nc(C2CC2)n3Cc2cccc(OC(F)F)c2)cc1` [I-113, 2-cyclopropyl-1-(3-(difluoromethoxy)benzyl)-N-(4-(ethylsulfonyl)benzyl)-1H-benzo[d]imidazole-5-carboxamide]: in experiment [1], the Ki was under 100 nM. Further, the IC50 in experiment [2] is under 100 nM.
Turning to `O=C(Cc1ccc(S(=O)(=O)CCO)cc1)Nc1ccc2c(c1)nc(C(F)(F)F)n2Cc1cccc2c1OC(F)(F)O2` [I-3, N-(1-((2,2-difluorobenzo[d][1,3]dioxol-4-yl)methyl)-2-(trifluoromethyl)-1H-benzo[d]imidazol-5-yl)-2-(4-((2-hydroxyethyl)sulfonyl)phenyl)acetamide], the Ki in experiment [1] was under 100 nM. In experiment [2], this compound showed an IC50 of under 100 nM.
Take `CCS(=O)(=O)c1ccc([C@@H](CO)NC(=O)c2ccc3c(c2)nc(C2CCC2)n3Cc2cccc3c2OC(F)(F)O3)nc1` [I-132.2, (S)-2-cyclobutyl-1-((2,2-difluorobenzo[d][1,3]dioxol-4-yl)methyl)-N-(1-(5-(ethylsulfonyl)pyridin-2-yl)-2-hydroxyethyl)-1H-benzo[d]imidazole-5-carboxamide]: the Ki in experiment [1] is under 100 nM. The compound also came in with an IC50 in experiment [2] of under 100 nM.
Take `CCS(=O)(=O)c1ccc(CNC(=O)c2ccc3c(c2)nc(C(F)(F)F)n3Cc2cccc(C(=O)OC)c2)cc1` [I-99, methyl 3-((5-((4-(ethylsulfonyl)benzyl)carbamoyl)-2-(trifluoromethyl)-1H-benzo[d]imidazol-1-yl)methyl)benzoate]: in experiment [1], the Ki is under 100 nM. Besides, the IC50 in experiment [2] fell in the range of 100 to 1000 nM.
As for `CCS(=O)(=O)c1ccc([C@H](COC)NC(=O)c2ccc3c(c2)nc(C(F)(F)F)n3Cc2cccc3c2OC(F)(F)O3)cc1` [I-59, (R)-1-((2,2-difluorobenzo[d][1,3]dioxol-4-yl)methyl)-N-(1-(4-(ethylsulfonyl)phenyl)-2-methoxyethyl)-2-(trifluoromethyl)-1H-benzo[d]imidazole-5-carboxamide], the Ki in experiment [1] is under 100 nM. The compound further came in with an IC50 in experiment [2] of under 100 nM.
As for `CCS(=O)(=O)c1ccc(CNC(=O)c2ccc3c(c2)nc(C2CC2)n3Cc2ccccc2OC(F)(F)F)cc1` [I-106, 2-cyclopropyl-N-(4-(ethylsulfonyl)benzyl)-1-(2-(trifluoromethoxy)benzyl)-1H-benzo[d]imidazole-5-carboxamide], the Ki in experiment [1] was under 100 nM. The IC50 in experiment [2] was in the range of 100 to 1000 nM.
Turning to `CNS(=O)(=O)N1CCC(CNC(=O)c2ccc3c(c2)nc(C(F)(F)F)n3Cc2cccc3c2OC(F)(F)O3)CC1` [I-77, 1-((2,2-difluorobenzo[d][1,3]dioxol-4-yl)methyl)-N-((1-(N-methylsulfamoyl)piperidin-4-yl)methyl)-2-(trifluoromethyl)-1H-benzo[d]imidazole-5-carboxamide], the Ki in experiment [1] was under 100 nM. The compound also came in with an IC50 in experiment [2] of under 100 nM.
On to `CCS(=O)(=O)c1ccc(CNC(=O)c2ccc3c(c2)nc(C(F)(F)F)n3Cc2ccc(C#N)cc2)cc1` [I-85, 1-(4-cyanobenzyl)-N-(4-(ethylsulfonyl)benzyl)-2-(trifluoromethyl)-1H-benzo[d]imidazole-5-carboxamide], for which, in experiment [1], the Ki was under 100 nM. In experiment [2], this compound had an IC50 of over 1000 nM.
The matching figures for `CCS(=O)(=O)c1ccc([C@H](CO)NC(=O)c2ccc3c(c2)nc(C2CC2)n3Cc2cccc3c2OC(F)(F)O3)nc1` [I-133.1, (R)-2-cyclopropyl-1-((2,2-difluorobenzo[d][1,3]dioxol-4-yl)methyl)-N-(1-(5-(ethylsulfonyl)pyridin-2-yl)-2-hydroxyethyl)-1H-benzo[d]imidazole-5-carboxamide]: under 100 nM and under 100 nM.
The matching figures for `CCS(=O)(=O)c1ccc(CNC(=O)c2ccc3c(c2)nc(C(F)F)n3Cc2cccc3c2OC(F)(F)O3)cc1` [I-37, 1-((2,2-difluorobenzo[d][1,3]dioxol-4-yl)methyl)-2-(difluoromethyl)-N-(4-(ethylsulfonyl)benzyl)-1H-benzo[d]imidazole-5-carboxamide]: under 100 nM and under 100 nM.
As for `CCS(=O)(=O)c1ccc(CNC(=O)c2ccc3c(c2)nc(C2CC2)n3Cc2cccc(O)c2O)cc1` [I-154, 2-cyclopropyl-1-(2,3-dihydroxybenzyl)-N-(4-(ethylsulfonyl)benzyl)-1H-benzo[d]imidazole-5-carboxamide], in experiment [1], the Ki is under 100 nM. In experiment [2], this compound registered an IC50 of over 1000 nM.
For `COC(=O)CS(=O)(=O)N1CCC(CNC(=O)c2ccc3c(c2)nc(C(F)(F)F)n3Cc2cccc3[nH]ncc23)CC1` [I-127, methyl 2-((4-((1-((1H-indazol-4-yl)methyl)-2-(trifluoromethyl)-1H-benzo[d]imidazole-5-carboxamido)methyl)piperidin-1-yl)sulfonyl)acetate], in that order: under 100 nM and under 100 nM.
Take `CCS(=O)(=O)c1ccc([C@H](CO)NC(=O)c2ccc3c(c2)nc(C(F)(F)F)n3Cc2cccc3c2OC(F)(F)O3)c(F)c1` [I-123, (R)-1-((2,2-difluorobenzo[d][1,3]dioxol-4-yl)methyl)-N-(1-(4-(ethylsulfonyl)-2-fluorophenyl)-2-hydroxyethyl)-2-(trifluoromethyl)-1H-benzo[d]imidazole-5-carboxamide]: in experiment [1], the Ki is under 100 nM. Further, the IC50 in experiment [2] is under 100 nM.
Regarding `CCS(=O)(=O)c1ccc([C@H](COC)NC(=O)c2ccc3c(c2)nc(C2CC2)n3Cc2cccc3c2OC(F)(F)O3)cc1` [I-60, (R)-2-cyclopropyl-1-((2,2-difluorobenzo[d][1,3]dioxol-4-yl)methyl)-N-(1-(4-(ethylsulfonyl)phenyl)-2-methoxyethyl)-1H-benzo[d]imidazole-5-carboxamide], in experiment [1], the Ki was under 100 nM. Besides, the IC50 in experiment [2] was under 100 nM.
As to `CS(=O)(=O)c1ccc(CNC(=O)c2ccc3c(c2)nc(C(F)(F)F)n3Cc2cccc3c2OC(F)(F)O3)nc1` [I-70, 1-((2,2-difluorobenzo[d][1,3]dioxol-4-yl)methyl)-N-((5-(methylsulfonyl)pyridin-2-yl)methyl)-2-(trifluoromethyl)-1H-benzo[d]imidazole-5-carboxamide], in experiment [1], the inhibition constant Ki is under 100 nM. Also, the IC50 in experiment [2] was under 100 nM.
Consider `CCS(=O)(=O)c1ccc(CNC(=O)c2ccc3c(c2)nc(C(C)(F)F)n3Cc2cccc3c2OC(F)(F)O3)nc1` [I-66, 1-((2,2-difluorobenzo[d][1,3]dioxol-4-yl)methyl)-2-(1,1-difluoroethyl)-N-((5-(ethylsulfonyl)pyridin-2-yl)methyl)-1H-benzo[d]imidazole-5-carboxamide], for which the Ki in experiment [1] is under 100 nM. This compound also yielded an IC50 in experiment [2] of under 100 nM.
In the case of `CCS(=O)(=O)c1ccc(CNC(=O)c2ccc3c(c2)nc(C(C)C)n3Cc2cccc3c2OC(F)(F)O3)cc1` [I-31, 1-((2,2-difluorobenzo[d][1,3]dioxol-4-yl)methyl)-N-(4-(ethylsulfonyl)benzyl)-2-isopropyl-1H-benzo[d]imidazole-5-carboxamide], the Ki in experiment [1] is under 100 nM. Besides, the IC50 in experiment [2] was under 100 nM.
Turning to `CCS(=O)(=O)c1ccc(CNC(=O)c2ccc3c(c2)nc(C2(F)CCC2)n3Cc2cccc3c2OC(F)(F)O3)nc1` [I-69, 1-((2,2-difluorobenzo[d][1,3]dioxol-4-yl)methyl)-N-((5-(ethylsulfonyl)pyridin-2-yl)methyl)-2-(1-fluorocyclobutyl)-1H-benzo[d]imidazole-5-carboxamide], the Ki in experiment [1] is under 100 nM. This compound also showed an IC50 in experiment [2] of under 100 nM.
